Reference: patent US7932270B2 (Cytokinetics, Inc., priority 2006, dated 2011)
pIC50: −log10 of the molar value.

Target: T1, chicken gizzard smooth muscle myosin subfragment-1 chemically crosslinked to cardiac or skeletal actin (Gallus gallus, UniProt P10587)
T1 construct: chicken gizzard smooth muscle myosin subfragment-1; from tissue; host or cells: chicken gizzard
Experiment: Smooth muscle myosin ATPase dose response assay (pyruvate kinase/horseradish peroxidase/pyruvate oxidase-coupled, amplex red fluorescence)
Format: biochemical
Conditions: read-out: IC50 Arithmetic Mean
Procedure, shortened: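 Readout is amplex red signal from coupled ATPase of actin-crosslinked gizzard myosin S1 (0.15 mM ATP, 12 mM K-PIPES, pH 7.00). IC50 is the half-maximal activity point of a four-parameter Hill fit.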

T1 sequence (P02607 2-151): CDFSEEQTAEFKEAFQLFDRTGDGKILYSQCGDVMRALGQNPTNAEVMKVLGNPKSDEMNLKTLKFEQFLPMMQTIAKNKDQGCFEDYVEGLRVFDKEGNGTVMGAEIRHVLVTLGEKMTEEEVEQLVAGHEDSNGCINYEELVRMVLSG
T1 sequence (P10587 84-789): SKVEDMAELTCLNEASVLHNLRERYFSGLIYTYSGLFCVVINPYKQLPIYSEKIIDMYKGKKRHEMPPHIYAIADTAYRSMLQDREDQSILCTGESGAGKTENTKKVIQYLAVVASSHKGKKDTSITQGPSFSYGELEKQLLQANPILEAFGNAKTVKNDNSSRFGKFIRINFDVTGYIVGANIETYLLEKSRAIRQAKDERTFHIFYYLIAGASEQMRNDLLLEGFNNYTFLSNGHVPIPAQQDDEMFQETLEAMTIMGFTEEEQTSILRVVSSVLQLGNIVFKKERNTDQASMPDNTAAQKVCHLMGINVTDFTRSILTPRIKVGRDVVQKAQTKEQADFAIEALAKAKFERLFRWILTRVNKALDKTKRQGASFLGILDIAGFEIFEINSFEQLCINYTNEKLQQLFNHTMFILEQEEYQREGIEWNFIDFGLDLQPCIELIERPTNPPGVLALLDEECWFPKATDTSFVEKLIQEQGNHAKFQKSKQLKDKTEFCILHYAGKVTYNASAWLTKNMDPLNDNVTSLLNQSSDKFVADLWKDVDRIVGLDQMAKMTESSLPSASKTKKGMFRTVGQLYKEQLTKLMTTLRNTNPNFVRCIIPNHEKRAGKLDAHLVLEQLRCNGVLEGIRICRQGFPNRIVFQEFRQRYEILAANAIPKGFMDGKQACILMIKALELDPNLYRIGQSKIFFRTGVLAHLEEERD

Compound: Cn1cc(-c2nc(NCCc3cccc(F)c3)c(C(=O)NC[C@H]3CCN3C(=O)OC(C)(C)C)cc2F)cn1 [tert-butyl (2R)-2-{[(5-fluoro-2-{[2-(3-fluorophenyl)ethyl]amino}-6-(1-methylpyrazol-4-yl)(3-pyridyl))carbonylamino]methyl}azetidinecarboxylate]
- pIC50: 6.28

Compound: O=C(NCc1cccnc1)c1ccc(-c2ccccc2)nc1NCCC1CCCCC1 [{2-[(2-cyclohexylethyl)amino]-6-phenyl(3-pyridyl)}-N-(3-pyridylmethyl)carboxamide]
- pIC50: 5.73

Compound: [N-]=[N+]=NCc1cc(C(=O)NCc2cccnc2)c(NCCc2cccc(F)c2)nc1-c1ccccc1
- pIC50: 6.37

Compound: N#Cc1ccccc1-c1ccc(C(=O)NCC2CCN(C(=O)CCN)CC2)c(NCCc2cccc(F)c2)n1 [N-{[1-(3-aminopropanoyl)(4-piperidyl)]methyl}(6-(2-cyanophenyl)-2-{[2-(3-fluorophenyl)ethyl]amino}(3-pyridyl))carboxamide]
- pIC50: 5.41

Compound: CN1CCC(CCNc2nc(-c3ccccc3)ccc2C(=O)NCc2cccnc2)CC1 [(2-{[2-(1-methyl(4-piperidyl))ethyl]amino}-6-phenyl(3-pyridyl))-N-(3-pyridylmethyl)carboxamide]
- pIC50: 4.70

Compound: CC(=O)N1CCCC[C@@H]1CNC(=O)c1ccc(-c2ccccc2C#N)nc1NCCc1cccc(F)c1 [N-[((2R)-1-acetyl(2-piperidyl))methyl](6-(2-cyanophenyl)-2-{[2-(3-fluorophenyl)ethyl]amino}(3-pyridyl))carboxamide]
- pIC50: 5.57

Compound: Cc1ccc(C)c(-c2ccc(C(=O)NCc3cccnc3)c(NCCc3ccccn3)n2)c1 [{6-(2,5-dimethylphenyl)-2-[(2-(2-pyridyl)ethyl)amino](3-pyridyl)}-N-(3-pyridylmethyl)carboxamide]
- pIC50: 4.87

Compound: N#Cc1ccccc1-c1ccc(C(=O)NCCCN2C(=O)CC[C@H]2CN=[N+]=[N-])c(NCCc2cccc(F)c2)n1
- pIC50: 4.78

Compound: CC(C)(C)OC(=O)NCc1cccc(CNC(=O)c2ccc(-c3ccccc3C#N)nc2NCCc2cccc(F)c2)n1
- pIC50: 5.92

Compound: CN(CCNC(=O)c1ccc(-c2ccccc2C#N)nc1NCCc1cccc(F)c1)C(=O)OC(C)(C)C [N-{2-[(tert-butoxy)-N-methylcarbonylamino]ethyl}(6-(2-cyanophenyl)-2-{[2-(3-fluorophenyl)ethyl]amino}(3-pyridyl))carboxamide]
- pIC50: 4.37

Compound: CC(C)(C)OC(=O)NCC(=O)N1CCC[C@@H]1CNC(=O)c1cc(F)c(-c2ccccc2C#N)nc1NCCc1cccc(F)c1 [N-[((2R)-1-{2-[(tert-butoxy)carbonylamino]acetyl}pyrrolidin-2-yl)methyl](6-(2-cyanophenyl)-5-fluoro-2-{[2-(3-fluorophenyl)ethyl]amino}(3-pyridyl))carboxamide]
- pIC50: 5.56

Compound: N#Cc1ccccc1-c1ccc(C(=O)NC[C@H]2CCCN2C(=O)CCCN)c(NCCC2CCOCC2)n1
- pIC50: 5.06

Compound: CC(=O)N[C@@H](CNC(=O)c1ccc(-c2ccccc2C#N)nc1NCCc1cccc(F)c1)C(N)=O [N-{(1S)-1-carbamoyl-2-[(6-(2-cyanophenyl)-2-{[2-(3-fluorophenyl)ethyl]amino}(3-pyridyl))carbonylamino]ethyl}acetamide]
- pIC50: 5.58

Compound: N#Cc1ccccc1-c1ccc(C(=O)NCCNC(=O)CCCN)c(NCCc2cccc(F)c2)n1 [4-amino-N-{2-[(6-(2-cyanophenyl)-2-{[2-(3-fluorophenyl)ethyl]amino}(3-pyridyl))carbonylamino]ethyl}butanamide]
- pIC50: 5.90

Compound: Cn1cc(-c2nc(NCCc3cccc(F)c3)c(C(=O)NCCCNC(=O)CN)cc2F)cn1 [2-amino-N-{3-[(5-fluoro-2-{[2-(3-fluorophenyl)ethyl]amino}-6-(1-methylpyrazol-4-yl)(3-pyridyl))carbonylamino]propyl}acetamide]
- pIC50: 5.60

Compound: Cc1ccccc1CCNc1nc(-c2ccccc2)ccc1C(=O)NCc1cccnc1 [(2-{[2-(2-methylphenyl)ethyl]amino}-6-phenyl(3-pyridyl))-N-(3-pyridylmethyl)carboxamide]
- pIC50: 6.49

Compound: O=C(NCc1cccnc1)c1ccc(-c2ccsc2CO)nc1NCCc1cccc(F)c1 [(2-{[2-(3-fluorophenyl)ethyl]amino}-6-[2-(hydroxymethyl)(3-thienyl)](3-pyridyl))-N-(3-pyridylmethyl)carboxamide]
- pIC50: 5.80

Compound: O=C(NCc1cccnc1)c1ccc(-c2ccncc2)nc1NCCc1ccccn1 [N-(3-pyridylmethyl){6-(4-pyridyl)-2-[(2-(2-pyridyl)ethyl)amino](3-pyridyl)}carboxamide]
- pIC50: 5.18

Compound: N#Cc1ccccc1-c1ccc(C(=O)NC[C@H]2CCCN(C(=O)CN)C2)c(NCCc2cccc(F)c2)n1 [N-{[(3R)-1-(2-aminoacetyl)(3-piperidyl)]methyl}(6-(2-cyanophenyl)-2-{[2-(3-fluorophenyl)ethyl]amino}(3-pyridyl))carboxamide]
- pIC50: 6.61

Compound: COC(=O)CCCNC(=O)c1ccc(-c2ccccc2C#N)nc1NCCc1cccc(F)c1 [methyl 4-[(6-(2-cyanophenyl)-2-{[2-(3-fluorophenyl)ethyl]amino}-3-pyridyl)carbonylamino]butanoate]
- pIC50: 6.15

Compound: CC(C)[C@H](CNC(=O)c1ccc(-c2ccccc2C#N)nc1NCCc1cccc(F)c1)NC(=O)CO [N-((1R)-1-{[(6-(2-cyanophenyl)-2-{[2-(3-fluorophenyl)ethyl]amino}(3-pyridyl))carbonylamino]methyl}-2-methylpropyl)-2-hydroxyacetamide]
- pIC50: 6.36

Compound: COP(=O)(OC)OCC(=O)N1CC[C@@H]1CNC(=O)c1cc(F)c(-c2cnn(C)c2)nc1NCCc1cccc(F)c1 [2-((2R)-2-{[(5-fluoro-2-{[2-(3-fluorophenyl)ethyl]amino}-6-(1-methylpyrazol-4-yl)(3-pyridyl))carbonylamino]methyl}azetidinyl)-2-oxoethyl dimethyl phosphate]
- pIC50: 6.40

Compound: O=C(NCC(O)CO)c1cc(F)c(-c2cn[nH]c2)nc1NCCc1cccc(F)c1 (stereo not drawn) [N-(2,3-dihydroxypropyl)(5-fluoro-2-{[2-(3-fluorophenyl)ethyl]amino}-6-pyrazol-4-yl(3-pyridyl))carboxamide]
- pIC50: 6.35

Compound: N#Cc1ccccc1-c1ccc(C(=O)NC2CCC(C(N)=O)C2)c(NCCc2cccc(F)c2)n1 (stereo not drawn) [3-[(6-(2-cyanophenyl)-2-{[2-(3-fluorophenyl)ethyl]amino}-3-pyridyl)carbonylamino]cyclopentanecarboxamide]
- pIC50: 4.93

Compound: NCCNc1cccc(CNC(=O)c2ccc(-c3cn[nH]c3)nc2NCCc2cccc(F)c2)n1 [N-({6-[(2-aminoethyl)amino](2-pyridyl)}methyl)(2-{[2-(3-fluorophenyl)ethyl]amino}-6-pyrazol-4-yl(3-pyridyl))carboxamide]
- pIC50: 7.70

Compound: CC[C@@H](CO)CNC(=O)c1cc(F)c(-c2cnn(C)c2)nc1NCCc1cccc(F)c1 [N-((2R)-2-ethyl-3-hydroxypropyl)(5-fluoro-2-{[2-(3-fluorophenyl)ethyl]amino}-6-(1-methylpyrazol-4-yl)(3-pyridyl))carboxamide]
- pIC50: 7.41

Compound: N#Cc1ccccc1-c1ccc(C(=O)NC[C@H]2CCCC(=O)N2CCCN)c(NCCc2cccc(F)c2)n1 [N-{[(2R)-1-(3-aminopropyl)-6-oxo(2-piperidyl)]methyl}(6-(2-cyanophenyl)-2-{[2-(3-fluorophenyl)ethyl]amino}(3-pyridyl))carboxamide]
- pIC50: 7.59

Compound: NCc1ccc(CNC(=O)c2ccc(-c3ccccc3)nc2NCCc2cccc(F)c2)nc1 [N-{[5-(aminomethyl)(2-pyridyl)]methyl}(2-{[2-(3-fluorophenyl)ethyl]amino}-6-phenyl(3-pyridyl))carboxamide]
- pIC50: 5.97

Compound: CN(C)C(=O)CCNc1nc(-c2ccccc2C#N)ccc1C(=O)NC[C@H]1CCCN1C(=O)CCCN [3-{[3-(N-{[(2R)-1-(4-aminobutanoyl)pyrrolidin-2-yl]methyl}carbamoyl)-6-(2-cyanophenyl)(2-pyridyl)]amino}-N,N-dimethylpropanamide]
- pIC50: 5.45

Compound: N#Cc1ccccc1-c1ccc(C(=O)NCCCN2C(=O)CC[C@@H]2CN=[N+]=[N-])c(NCCc2cccc(F)c2)n1
- pIC50: 5.25

Compound: N#Cc1ccccc1-c1ccc(C(=O)NCc2cccc(CN)n2)c(NCCc2cccc(F)c2)n1 [N-{[6-(aminomethyl)(2-pyridyl)]methy}(6-(2-cyanophenyl)-2-{[2-(3-fluorophenyl)ethyl]amino}(3-pyridyl))carboxamide]
- pIC50: 8.05

Compound: N#Cc1ccccc1-c1ccc(C(=O)NCc2ccncc2CN)c(NCCc2cccc(F)c2)n1 [N-{[3-(aminomethyl)(4-pyridyl)]methyl}(6-(2-cyanophenyl)-2-{[2-(3-fluorophenyl)ethyl]amino}(3-pyridyl))carboxamide]
- pIC50: 7.25

Compound: C[C@H](N)C(=O)N1CCC[C@@H]1CNC(=O)c1ccc(-c2ccccc2C#N)nc1NCCc1cccc(F)c1 [N-{[(2R)-1-((2S)-2-aminopropanoyl)pyrrolidin-2-yl]methyl}(6-(2-cyanophenyl)-2-{[2-(3-fluorophenyl)ethyl]amino}(3-pyridyl))carboxamide]
- pIC50: 7.28

Compound: N#Cc1ccccc1-c1ccc(C(=O)N[C@H](CCCN)C(N)=O)c(NCCc2cccc(F)c2)n1 [N-((1R)-4-amino-1-carbamoylbutyl)(6-(2-cyanophenyl)-2-{[2-(3-fluorophenyl)ethyl]amino}(3-pyridyl))carboxamide]
- pIC50: 5.13

Compound: COC(=O)CNC[C@H](N)CNC(=O)c1ccc(-c2ccccc2C#N)nc1NCCc1cccc(F)c1 [methyl 2-({(2S)-2-amino-3-[(6-(2-cyanophenyl)-2-{[2-(3-fluorophenyl)ethyl]amino}(3-pyridyl))carbonylamino]propyl}amino)acetate]
- pIC50: 6.04

Compound: C[C@@H](NC(=O)OC(C)(C)C)C(=O)N1CCC[C@@H]1CNC(=O)c1ccc(-c2ccccc2C#N)nc1NCCc1cccc(F)c1 [N-[(1R)-2-((2R)-2-{[(6-(2-cyanophenyl)-2-{[2-(3-fluorophenyl)ethyl]amino}(3-pyridyl))carbonylamino]methyl}pyrrolidinyl)-1-methyl-2-oxoethyl](tert-butoxy)carboxamide]
- pIC50: 5.40
